Measured values: PubChem BioAssay (NCI)
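Step 1: Grow cells in 96-well plates. Step 2: Expose to compound for 48 hours at 5 concentrations. Step 3: Interpolate endpoints linearly; if unreached, use highest concentration.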 The source made the active and inactive calls. Cut-off read from the data, not from the text of the source: active = GI50 below about 0.43 µM; inactive = the rest.

Tests used:
Experiment in all cases: growth of human tumour cells (NCI), 48 h
MCF7 breast = test system: MCF7 breast
SN12C renal = test system: SN12C renal
SK-OV-3 ovarian = test system: SK-OV-3 ovarian
RXF 393 renal = test system: RXF 393 renal
U251 CNS = test system: U251 CNS
MDA-N = test system: MDA-N
SK-MEL-28 melanoma = test system: SK-MEL-28 melanoma
HCT-15 colon = test system: HCT-15 colon
SF-268 CNS = test system: SF-268 CNS
OVCAR-5 ovarian = test system: OVCAR-5 ovarian
BT-549 breast = test system: BT-549 breast
NCI-H23 lung = test system: NCI-H23 lung
SNB-19 CNS = test system: SNB-19 CNS
NCI/ADR-RES ovarian = test system: NCI/ADR-RES ovarian
EKVX NSCLC = test system: EKVX NSCLC
A549 NSCLC = test system: A549 NSCLC
HCC-2998 colon = test system: HCC-2998 colon
T-47D breast = test system: T-47D breast
OVCAR-8 ovarian = test system: OVCAR-8 ovarian
UACC-62 melanoma = test system: UACC-62 melanoma
LOX IMVI melanoma = test system: LOX IMVI melanoma
MDA-MB-231 breast = test system: MDA-MB-231 breast
SF-539 CNS = test system: SF-539 CNS
IGROV1 ovarian = test system: IGROV1 ovarian
NCI-H226 lung = test system: NCI-H226 lung
HOP-92 NSCLC = test system: HOP-92 NSCLC
K-562 leukemia = test system: K-562 leukemia
HCT-116 colon = test system: HCT-116 colon
CAKI-1 renal = test system: CAKI-1 renal
MOLT-4 leukemia = test system: MOLT-4 leukemia
SW-620 colon = test system: SW-620 colon
DU-145 prostate = test system: DU-145 prostate
SR leukemia = test system: SR leukemia
OVCAR-4 ovarian = test system: OVCAR-4 ovarian
SNB-75 CNS = test system: SNB-75 CNS
HL-60(TB) leukemia = test system: HL-60(TB) leukemia
TK-10 renal = test system: TK-10 renal
PC-3 prostate = test system: PC-3 prostate
SK-MEL-5 melanoma = test system: SK-MEL-5 melanoma
UACC-257 melanoma = test system: UACC-257 melanoma
HOP-62 NSCLC = test system: HOP-62 NSCLC
MALME-3M melanoma = test system: MALME-3M melanoma
NCI-H460 lung = test system: NCI-H460 lung
UO-31 renal = test system: UO-31 renal
HT29 colon = test system: HT29 colon
CCRF-CEM leukemia = test system: CCRF-CEM leukemia
COLO 205 colon = test system: COLO 205 colon
HS 578T breast = test system: HS 578T breast
MDA-MB-435 = test system: MDA-MB-435
A498 renal = test system: A498 renal
SK-MEL-2 melanoma = test system: SK-MEL-2 melanoma
M14 melanoma = test system: M14 melanoma
OVCAR-3 ovarian = test system: OVCAR-3 ovarian
SF-295 CNS = test system: SF-295 CNS

Measured: outcome

O=c1cc(-c2ccc(O)c(O)c2-c2c(O)cc(O)c3c(=O)cc(-c4ccc(O)c(O)c4-c4c(O)cc(O)c5c(=O)cc(-c6ccc(O)c(O)c6)oc45)oc23)oc2cc(O)cc(O)c12
inactive: all assays above
